# According to US20050153870A1, “Medicinal composition for diagnosis, prevention, or therapy of multiple risk factor syndrome” (priority 2002, published 2005):
# Marks after values point to notes of the source that are not given here.
# Legend:
# [1] = in vivo; cited from earlier work
# [2] = test system: Lean; experiment: Body weight and blood sugar in Lean mice (Example 7); type: in vivo, mouse; details: for Body weight / Blood sugar level: in feed for a week (MAC 0.05%, AS-103 0.05%, AR-610 0.1%, AF 0.4%, AC 0.05%); for Body weight: control group 20.9 ± 0.8; for Blood sugar level: control group 211.2 ± 7.8; for Blood sugar level, change vs control group / Body weight, change vs control group: in feed for a week, contents as in table
# Method: [The procedure below names another variant; the source lists this variant under the same test.] (§1) Powered feed to which ascofuranone (AF) and ascochlorin (AC) as well as its derivatives, 4-0-methylascochlorin (MAC), 4-0-carboxymethylascochlorin (AS-6), and 4-0-nicotinoyl ascochlorin (AS-103) were added to feed at the proportions shown in the table, and the feed were given to db/db mice for a week and then analyzed for blood sugar decreasing effect (8 mice/group).
# [3] = test system: Mouse, rat, beagle dog, quail, DOCA hypertension rat; experiment: Serum cholesterol decreasing effect; type: in vivo; details: incl. rat and quail raised with hyperfat feed
# Method: The quails are raised by giving a feed containing 2% cholesterol for 9 months to develop hypercholesteremia, and, in the case of the rats, mineral corticoid and saline are administered to allow them to develop heart and blood vessel disease and then hypercholesteremia.
# [4] = test system: DOCA hypertension rat; experiment: Hypercardia, thickened arteries, edema in organs; type: in vivo
# Source text: (§2) As to prevention/therapy of arteriosclerosis, a big difference is observed in effect between medicaments conceivably effective in improving arteriosclerosis, such as fibrate series medicament, thiazolidine series medicament, probucol, and statin series medicament and a compound of the present invention.
# [5] = test system: patients with type II diabetes; experiment: Glucose tolerance test in Clinical test II; type: in vivo, human; details: 50 g of glucose perorally at fasting; after therapy of 12 weeks vs before; 30 patients
# Method: A glucose tolerance test were performed by perorally taking 50 g of glucose at fasting time in the early morning and measuring concentrations of blood sugar and urine sugar with time. A solid line represents the results immediately before therapy and a broken line represents immediately after the therapy of 12 weeks. Since a process of a glucose tolerance test more or less varied depending upon medical institutions, data of all patients (30 patients) with type II diabetes participated in this test in a single and the same institution are statistically analyzed and shown. […] Note that, in the FIGS. 2 and 3, numerical values each represent average value±standard deviation.
# [6] = test system: Rat; experiment: Glucogenesis in the liver; type: in vivo; details: perorally
# Source text: Compounds of this series suppresses hepatic glucogenesis which is induced by administration of dexamethazon to a rat. For this reason, it antagonizes the action of glucocorticoid in vivo. The compound further has an effect of suppressing steroid diabetes characterized by polydipsia and polyurea and urine sugar excretion induced by administering cortisol to a rat. […] These facts strongly support that compounds of this series is useful in preventing and/or treating visceral fat syndrome.
# [7] = test system: Rabbit; experiment: Arteriosclerosis suppressing effect, rabbit on hyperfat feed; type: in vivo; details: 0.2 to 0.05% mixed to hyperfat feed
# Source text: as §2
# [8] = test system: db/db mice; experiment: Blood sugar decreasing effect in db/db mice (Example 7); type: in vivo, mouse; details: for Body weight / Blood sugar level: in feed for a week (MAC 0.05%, AS-103 0.05%, AR-610 0.1%, AF 0.4%, AC 0.05%); for Body weight: control group 44.6 ± 0.9; for Blood sugar level: control group 549.8 ± 21.8; for Blood sugar level, change vs control group / Body weight, change vs control group: in feed for a week, contents as in table
# Method: as §1
# [9] = test system: Mouse, db/db mouse; experiment: Serum insulin decreasing effect; type: in vivo; details: about 0.1% added to feed
# [10] = test system: Zucker rats; experiment: Blood pressure of Zucker rat (Example 8); type: in vivo; details: for blood pressure, change vs Zucker control group / blood pressure: 0.1% in feed; for blood pressure: AS-6 group at 0th week 144 ± 6
# Method: Zucker rats were raised for 4 weeks with feed in which 4-0-carboxylmethyl ascochlorin (AS-6) was mixed in a content of 0.1%. At the 0th, 2nd and 4th week of initiation of feeding, blood pressure was measured (6 rats/group).
# [11] = test system: Db/db mouse, ob/ob mouse; experiment: Improvement of polydipsia and polyurea; type: in vivo; details: in feed, hereditary diabetic obese mouse
# [12] = test system: C57BL/6j-ob/ob mice; experiment: AS-6 in feed to ob/ob mice (Example 3); type: in vivo, mouse; details: 0.1% in feed, 1 week
# Method: C57BL/6j-ob/ob mice, which were model animals of multiple risk factor syndrome, were raised for a week with powered feed in which an ascochlorin derivative, 4-O-carboxymethylascochlorin (AS-6), was mixed in a content of 0.1%. Thereafter, the weight, blood sugar, blood insulin, and blood neutral fat were measured.
# [13] = test system: Zucker rats; experiment: AS-6 in feed to Zucker rats for 10 weeks (Example 5); type: in vivo, rat; details: 0.12% in feed
# Method: Zucker rats were divided into two groups. One group was raised with commercially available feed to which 4-O-carboxymethylascochlorin (AS-6) was mixed up to a content of 0.12%. The other group and normal Lean-rat littermate group were raised for 10 weeks with the same commercially available feed containing no AS-6. Thereafter, body weight, white adipose cell weight, blood insulin, blood sugar, and blood lipid were measured (7 mice/group).
smiles,measurement,setting,value
COc1c(Cl)c(C)c(C=O)c(O)c1C/C=C(C)/C=C/[C@@]1(C)[C@H](C)CCC(=O)[C@@H]1C [4-O-methylascochlorin],distribution of the isotope-labeled compound,[1],widely and specifically distributed in the adipose tissue as well as in the adrenal gland
same,synthesis of steroid hormones (glucocorticoid+mineral corticoid) of adrenal cortex,[1],regulates synthesis of steroid hormones
same,Body weight,[2],21.3 ± 0.9 g
same,Blood sugar level,[2],223.1 ± 11.6 mg/dL
same,"Blood sugar level, change vs control group",[2],ns
same,"Body weight, change vs control group",[2],ns
same,serum cholesterol decreasing effect,[3],"carboxymethylascochlorin, and ascofuranone exhibits an effect of decreasing serum"
same,edema of various organs including the kidney,[4],"such as hypercardia and thickened arteries, and suppresses edema of various"
same,lesions associated with cardiovascular diseases such as hypercardia and thickened arteries,[4],4-0-methylascochlorin alleviates lesions associated with cardiovascular diseases
same,blood sugar level in glucose tolerance test (FIG. 2),[5],significantly decreases blood sugar level
same,urine sugar level in glucose tolerance test (FIG. 3),[5],significantly decreases the concentration of glucose contained in the urine
same,glucogenesis performed in the liver,[6],performed in the liver is suppressed.
same,death from circulatory failure,[7],infarction derived from arteriosclerosis of the arteria coronaria and suppressing death
same,Body weight,[8],45.5 ± 1.8 g
same,Blood sugar level,[8],478.0 ± 28.3 mg/dL
same,"Blood sugar level, change vs control group",[8],−13.3%*
same,"Body weight, change vs control group",[8],ns
same,serum insulin,[9],"added in an amount of about 0.1% to feed and given to an animal, it decreases serum"
"CC(C=CC1(C)C(C)CCC(=O)C1C)=CCc1c(O)c(C=O)c(C)c(Cl)c1OCC(=O)O (stereo not drawn) [AS-6, 4-O-carboxymethylascochlorin]","blood pressure, change vs Zucker control group",[10]; 2nd week,−13.7%(**)
same,blood pressure,"[10]; 2nd week, Zucker control 153 ± 6",132 ± 5
same,"blood pressure, change vs Zucker control group",[10]; 4th week,−19.9%(**)
same,blood pressure,"[10]; 4th week, Zucker control 156 ± 7",125 ± 6
same,decrease in blood pressure in comparison with the Zucker control group,[10]; 2nd week after the initiation of feeding,13.7%
same,decrease in blood pressure in comparison with the Zucker control group,[10]; 4th week after the initiation of feeding,19.9%
same,Body weight,[2],20.2 ± 0.4 g
same,Blood sugar level,[2],194.1 ± 9.5 mg/dL
same,"Blood sugar level, change vs control group",[2],ns
same,"Body weight, change vs control group",[2],ns
same,serum cholesterol decreasing effect,[3],"carboxymethylascochlorin, and ascofuranone exhibits an effect of decreasing serum"
same,amount of drinking water,[11],"obese mouse, the amount of drinking water decreases in a dose-dependent manner,"
same,amount of sugar excreted in the urine,[11],excreted in the urine significantly decreases.
same,Body weight,[8],45.3 ± 1.7 g
same,Blood sugar level,[8],335.8 ± 8.5 mg/dL
same,"Blood sugar level, change vs control group",[8],−38.9%**
same,"Body weight, change vs control group",[8],ns
same,"Blood sugar, change vs ob/ob control group",[12],−32.4%*
same,"Body weight, change vs ob/ob control group",[12],ns
same,"Cholesterol, change vs ob/ob control group",[12],ns
same,"Free fatty acid, change vs ob/ob control group",[12],−43.6%**
same,"Insulin, change vs ob/ob control group",[12],−33.8%
same,"Neutral fat, change vs ob/ob control group",[12],−61.0%**
same,Free fatty acid,[12]; ob/ob control 1.224 ± 0.072,0.690 ± 0.078 mEq/L
same,Body weight,[12]; ob/ob control 48.5 ± 0.6,47.8 ± 0.6 g
same,Insulin,[12]; ob/ob control 73.9 ± 16.7,48.9 ± 8.2 μU/mL9
same,Neutral fat,[12]; ob/ob control 162.4 ± 16.0,63.2 ± 7.2 mg/dL
same,Cholesterol,[12]; ob/ob control 268.5 ± 24.2,249.7 ± 12.1 mg/dL
same,blood sugar,[12]; ob/ob control 360.4 ± 44.9,243.8 ± 15.6 mg/dL
same,risk factors except for body weight and blood cholesterol,[12]; ob/ob mice,significantly reduced
same,serum insulin,[9],"added in an amount of about 0.1% to feed and given to an animal, it decreases serum"
same,"Blood sugar (full feeding), change vs Zucker control group",[13],ns
same,"Body weight, change vs Zucker control group",[13],ns
same,"Cholesterol, change vs Zucker control group",[13],ns
same,"Free fatty acid, change vs Zucker control group",[13],−50.0%
same,"Insulin, change vs Zucker control group",[13],−23.4%
same,"Neutral fat, change vs Zucker control group",[13],−49.8%
same,"Phospholipid, change vs Zucker control group",[13],−14.3%
same,"White adipose cells, change vs Zucker control group",[13],ns
same,Free fatty acid,[13]; Zucker control 1.391 ± 0.110,0.696 ± 0.069
same,White adipose cells,[13]; Zucker control 4.06 ± 0.09,3.66 ± 0.11
same,Cholesterol,[13]; Zucker control 117.4 ± 4.8,123.6 ± 7.8
same,Insulin,[13]; Zucker control 176.3 ± 14.7,135.1 ± 15.6
same,Phospholipid,[13]; Zucker control 340.8 ± 12.0,292.1 ± 8.9
same,Body weight,[13]; Zucker control 362 ± 13,358 ± 15
same,Neutral fat,[13]; Zucker control 928.6 ± 47.7,466.3 ± 60.2
same,Blood sugar (full feeding),[13]; Zucker control printed 73.0 ± 14.5,174.3 ± 19.0
same,"insulin, free fatty acid, neutral fat and phospholipid",[13]; Zucker rats,significantly reduced
